Experimental data as given in US20080081814A1, “Carbonyl Compounds Which Can be Used as Inhibitors of Coagulation Factor Xa” (priority 2004, published 2008).

Biological target: factor Xa (Homo sapiens, UniProt P00742)
Assay: Factor Xa inhibition (FXa-IC50)
Format: biochemical
Source text: The inhibition of factor Xa by the compounds according to the invention and the measurement of the anticoagulant and antithrombotic activity can be determined by conventional in-vitro or in-vivo methods. A suitable method is described, for example, by J. Hauptmann et al. in Thrombosis and Haemostasis 1990, 63, 220-223.
The inhibition of factor Xa can be measured, for example by the method of T. Hara et al. in Thromb. Haemostas. 1994, 71, 314-319.

factor Xa, sequence (P00742 235-488 limits assumed): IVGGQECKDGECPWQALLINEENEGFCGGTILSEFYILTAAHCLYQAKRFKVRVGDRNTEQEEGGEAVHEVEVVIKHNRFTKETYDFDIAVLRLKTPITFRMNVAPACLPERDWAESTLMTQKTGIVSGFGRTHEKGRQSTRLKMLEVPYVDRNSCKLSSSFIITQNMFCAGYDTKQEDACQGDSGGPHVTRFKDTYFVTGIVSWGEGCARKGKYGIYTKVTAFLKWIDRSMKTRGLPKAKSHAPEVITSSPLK
factor Xa, sequence (P00742 41-179 partner limits assumed): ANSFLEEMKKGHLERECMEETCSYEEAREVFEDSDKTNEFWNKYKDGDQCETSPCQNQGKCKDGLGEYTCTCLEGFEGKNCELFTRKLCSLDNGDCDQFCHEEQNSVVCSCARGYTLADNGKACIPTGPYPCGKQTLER

IC50: 2 nM
SMILES: CCOC(=O)O[C@@H]1C[C@H](C(=O)Nc2ccc(N3CCOCC3=O)cc2)N(C(=O)Nc2ccc(Cl)cc2)C1 [Compound A1, N-1-(4-chlorophenyl)-4-(ethoxycarbonyloxy)-N-2-[4-(3-oxomorpholin-4-yl)phenyl)-(2R,4R)-pyrrolidine-1,2-dicarboxamide]
